Reference: ChEMBL document CHEMBL6134907, “Synthesis of 5,9- and 5,8-Diaminoalkoxy Substituted Benzophenanthridinone Analogues as Tyrosyl-DNA Phosphodiesterase 1 Inhibitors and Their Radiosensitizing Activity” (J Med Chem, 2025)
Active and inactive are the calls of the source. The rule behind the calls is not given here.

Legend:
HCT-116 [1] = assay: Synergistic cytotoxicity against human SgTDP1-HCT-116 cells (TDP1 knockout) assessed as combination index at 0.5 uM incubated for 48 hrs in presence of 2GY ionizing radiation; format: functional
HCT-116 [2] = assay: Induction of apoptosis in human HCT-116 cells assessed as viable cells at 10 uM measured after 24 hrs by FITC Annexin V/PI apoptosis detection assay (reference value: 99.71%); format: functional; conditions: read-out: Activity
HCT-116 [3] = assay: Reduction of XRCC4 expression in wild type human HCT-116 cells assessed as reduction in mRNA level at 5 to 10 uM radiated with 4 GY ionizing radiation (IR) measured after 24 hrs by qRT-PCR analysis; format: functional, cell-based; conditions: dose 5-10 µM
[4] = Tmax in male Sprague-Dawley rat at 5 mg/kg, IG measured up to 24 hrs by LCMS-MS analysis; format: ADME, organism-based; conditions: in vivo, po
[5] = test system: Tyrosyl-DNA phosphodiesterase 1/Deoxyribonucleic acid; assay: Stabilization of TDP1/DNA complex in human HCT-116 cells at 100 uM ionizing radiation with 4 GY by Cellular Thermal Shift Assay (CETSA); format: cell-based
HCT-116 [6] = assay: Suppression of ionizing radiation (IR) induced DNA damage in human wild type HCT-116 cells assessed as HR repair activity by measuring GFP positive cells at 1 uM measured after 24 hrs by flow cytometry; format: functional, cell-based

COc1cc2c(=O)n(CCN(C)C)c3c4cc5c(cc4ccc3c2cc1OCCN1CCOCC1)OCO5
CI (HCT-116 [1]): 0.94
viability at 10 µM (HCT-116 [2]): 72.1%
Activity (HCT-116 [3]): Active
Tmax [4]: 4 h
Activity [5]: Active; Coincubation With Ionizing Radiation Showed Greater Complex Formation
Activity (HCT-116 [6]): inactive
